# Assay results reported in patent US8507460B2, “Substituted 3′,5′-cyclic phosphates of purine nucleotide compounds and pharmaceutical compositions for the treatment of viral infections” (priority 2011, dated 2013).
# pEC50: −log10 of the molar value.
# Tests used:
# [1] = system: HCV genotype 1b replicon; assay: HCV Replicon Assay (Zluc luciferase reporter); assay type: cell-based
# Procedure: Huh-7-derived cell line (Zluc) that harbors an HCV genotype 1b replicon and a luciferase reporter gene was grown in Dulbecco's Modified Eagle Medium (DMEM) supplemented with 10% fetal bovine serum, 2 mM GlutaMAX, 1% MEM nonessential amino acids, 100 IU/mL penicillin, 100 μg/mL streptomycin, and 0.5 mg/mL Geneticin® (G418). For dose response testing the cells were seeded in 96-well plates at 7.5×10^3 cells per well in a volume of […], and incubated at 37° C./5% CO2. Drug solutions were made up freshly in Huh-7 media as 2× stocks. […] 5-fold dilutions were prepared from these stocks in DMEM without G418. At least three hours after Zluc cells were seeded, drug treatment was initiated by adding 50 μL of drug dilutions to the plates in duplicate. Final concentrations of drug ranged from 100 μM to 0.0000512 μM. Cells were then incubated at 37° C./5% CO2. Alternatively, compounds were tested at two concentrations (1 μM and 10 μM). […] After 72 hours of incubation, the inhibition of HCV replication was measured by quantification of photons emitted after mono-oxygenation of 5′-fluoroluciferin to oxyfluoroluciferin by firefly luciferase. For this, media was removed from the plates via gentle tapping. Fifty microliters of ONE-glo luciferase assay reagent was added to each well. The plates were shaken gently for 3 min at room temperature and luminescence was measured on a Victor^3 V 1420 multilabel counter (Perkin Elmer) with a 1 second read time using a 700 nm cut-off filter. The EC50 values were calculated from dose response curves from the resulting best-fit equations determined by Microsoft Excel and XLfit 4.1 software. When screening at two fixed concentrations, the results were expressed as % inhibition at 1 μM and 10 μM.
# [2] = system: Zluc cells; assay: Cytotoxicity evaluation, CellTiter-Blue Cell Viability Assay; assay type: cell-based; details: read-out: HCV Replicon CC50
# Procedure: For cytotoxicity evaluation, Zluc cells were treated with compound as described above, and cell viability was monitored using the CellTiter-Blue Cell Viability Assay (Promega) by adding 20 μL of the assay solution to each well. The plates were then incubated at 37° C./5% CO2 for at least 3 hours.
# [3] = Stability in simulated gastric and intestinal fluids; assay type: in vitro ADME; details: 100 μM, 2 hours at 37° C., percent of peak area at time zero
# Procedure: Simulated gastric and intestinal fluids containing pepsin and pancreatin respectively were prepared according to the U.S. Pharmacopoeia USP291 procedure (www.pharmacopeia.cn/v29240/usp29nf24s0_ris1s126.html). Test compound (final concentration 100 μM) was incubated in duplicate in the appropriate fluid for 2 hours at 37° C. The samples were quenched with 200 μl cold acetonitrile, vortexed for 30 seconds and then centrifuged at 16,100 g for 10 min. The supernatants were analyzed by HPLC on a C-18 column with UV detection at 252 nm. The time 0 samples were prepared by adding SGF or SIF fluid to the quenching solvent followed by the test compound. Stability of the compound was determined by peak area the test compound after incubation and calculated as percent of the peak area observed at time zero.
# [4] = Stability in fresh human whole blood; assay type: in vitro ADME; details: 0.5 μM, percent unchanged
# Procedure: (§1) Stability of test compounds were determined in fresh human whole blood with K2EDTA as the anticoagulant (stored refrigerated at 2-8° C. and used within 7 days of receipt). The experiment was conducted with three replicates for each time point. Whole blood, pre-incubated at 37° C. for 10-15 minutes, was fortified with a solution of test compound for a final concentration of 0.5 μM and mixed for 30 sec. At intervals (0, 0.5, 1 and 2 hr), three […] aliquots were combined with 200 μL (each) of an ice-cold solution of the internal standard (carbutamide 500 ng/mL in acetonitrile). The samples were vortexed for 30 sec and then centrifuged at 16,100 g for 5 min. The supernatant was analyzed by LC-MS/MS. The MS peak area ratio of the test compound versus the internal standard was calculated and percent unchanged test compound was calculated for each time point using this ratio.
# [5] = Stability in mouse blood; assay type: in vitro ADME; details: mouse whole blood, on ice, percent unchanged
# Procedure: as §1
# The stability in mouse blood was determined on ice at 0, 0.5 and 1 hr as above.
# [6] = Stability in rat whole blood; assay type: in vitro ADME
# [7] = Stability in liver and intestinal subcellular fractions (microsomes and S9); assay type: in vitro ADME, human; details: 10 μM, NADPH, 60 min, percent unchanged
# Procedure: Stability of test compounds were determined in subcellular fractions (microsomes and S9) of human liver and intestine in duplicate for each matrix. Pooled liver and intestinal microsomal, intestinal and liver S9 proteins (1.0 mg/mL), suspended in incubation buffer (100 mM potassium phosphate, pH […], and 0.1 mM EDTA), were preincubated for 5 min at 37° C. with 10 μM of a test compound from a 10 mM stock solution in DMSO (final DMSO concentration was 0.1%); the reaction was initiated by the addition of NADPH (3 mM final concentration). At specific times (0 and 60 min), 0.1 mL samples were taken and the reaction terminated by the addition of 4 volumes of stop solution (acetonitrile with 500 ng/mL carbutamide as an internal standard). The samples were vortexed for 30 sec and then centrifuged at 16,000 g for 10 min. 100 μL of supernatants were transferred to 96 deep-well plates preloaded with 100 μL distilled water and analyzed after mixing by LC-MS/MS. The MS peak area ratio of the test compound versus the internal standard was calculated and percent unchanged test compound over 60 minutes was calculated using this ratio.
# [8] = system: fresh human hepatocytes; assay: Release of active metabolite in fresh human hepatocytes; assay type: in vitro ADME; details: 10 μM
# Procedure: Plates of fresh human and mouse hepatocytes were obtained on ice. The medium was removed and replaced with hepatocyte culture medium (William's E supplemented with penicillin-streptomycin, 1% L-glutamine, 1% insulin-transferrin-selenium and 0.1 μM Dexamethasone (Invitrogen) or with Invitro GRO HI medium complemented with Torpedo antibiotics (Celsis)). Cells were left overnight in an incubator at 37° C. to acclimatize to culture and the medium.
# Hepatocyte incubations were conducted at a final volume of 0.5 mL hepatocyte culture medium/well (0.8 million cells/well for human and 0.5 million cells/well for mouse; 12 well plate no overlay, collagen coat). Culture medium from overnight incubation of cells was removed and replaced with fresh medium, pre-warmed to 37° C., containing 10 μM of test compound from a stock solution in DMSO (final DMSO concentration was 0.1%). At each specific time point, incubation medium was removed and cell monolayers were carefully washed two times with ice-cold PBS. Following the last wash, all PBS was carefully removed and 1.0 mL of extraction solution (ice-cold 70% methanol/30% water) added. Cells were scraped off and suspended in the extraction solution, transferred to 2 mL polypropylene microfuge tubes and intracellular contents extracted overnight at −20° C.
# After the overnight treatment the cellular extracts were prepared by centrifugation at 16,000×g for 10 min to remove cellular debris. The remaining sample was then dried using a refrigerated centrivap concentrator. Dry extracts were reconstituted in 1000 μL of HPLC-grade water and centrifuged at 16,000×g for 10 min. Aliquots (100 μL each) of the supernatant were transferred into a 96 well plate and internal standard (4 ng/mL final concentration) was added as the internal standard (IS) for LC-MS/MS analysis.
# The incubation time points were 6, 24 and 48 hours for human hepatocytes and 1, 4, 8, 12 and 24 hours for mouse hepatocytes.
compound,measurement,setting,value
"CCOc1nc(N)nc2c1ncn2[C@@H]1O[C@@H]2COP(=O)(OC(C)C)O[C@H]2[C@@]1(C)O (single isomer, unassigned) [Compound 1b]",selectivity index,"[1]; HCV replicon assay, Zluc cells",greater than 80
same,pEC50,"[1]; Zluc cells (Huh-7-derived, HCV genotype 1b replicon, luciferase reporter), 72 hours",5.00 to 6.00
same,CC50,[2],> 50 µM
same,Stability SGF,[3]; simulated gastric fluid with pepsin,99%
same,Stability SIF,[3]; simulated intestinal fluid with pancreatin,101%
same,Stability WB_Human (37° C.; 2 hr),[4],103%
same,Stability WB_Mouse (ice; 1 hr),[5],96%
same,Stability WB_Rat (ice; 1 hr),[6],96%
same,Stability HIS9 (1 hr),[7]; HIS9 1.0 mg/mL,104%
same,Stability HIM (1 hr),[7]; human intestinal microsome 1.0 mg/mL,102%
same,Stability HLS9 (1 hr),[7]; human liver S9 fraction 1.0 mg/mL,112%
same,Stability HLM (1 hr),[7]; human liver microsome 1.0 mg/mL,96%
same,FHH TP (6 hr),[8]; 6 hr,BLD^a
same,FHH TP (24 hr),[8]; 24 hr,BLD^a
